Experiments:
[1] = target: human vasopressin V1b receptor (Homo sapiens (Human), UniProt P47901); assay: Vasopressin V1b receptor binding assay; details: membranes from CHO-K1 cells, displacement of 3H-AVP
Procedure: The test substances were dissolved in a concentration of 5 mM in 100% DMSO and further diluted to 5×10^−4 M to 5×10^−9 M. These serial DMSO predilutions were diluted 1:10 with assay buffer. The substance concentration was further diluted 1:5 in the assay mixture resulting in 2% DMSO in the mixture. All dilutions were performed in a Biomek NX automation workstation (Beckman)
The membrane pellet was again homogenized and centrifuged as described and subsequently taken up in 50 mM Tris-HCl, pH 7.4, homogenized and stored in aliquots frozen in liquid nitrogen at −190° C.
(§1) The incubation buffer was: 50 mM Tris, 10 mM MgCl2, 0.1% BSA, pH 7.4.
All determinations were carried out as duplicate determinations. […] The liquid scintillation measurement took place in a Microbeta TriLux 12 (Wallac). Analysis:
(§2) The binding parameters were calculated by nonlinear regression in SAS.

[2] = target: human vasopressin V1a receptor (Homo sapiens (Human), UniProt P37288); assay: Vasopressin V1a receptor binding assay; details: selectivity quotient, human V1a vs human V1b receptor
Sequence of human vasopressin V1a receptor (P37288 whole entry): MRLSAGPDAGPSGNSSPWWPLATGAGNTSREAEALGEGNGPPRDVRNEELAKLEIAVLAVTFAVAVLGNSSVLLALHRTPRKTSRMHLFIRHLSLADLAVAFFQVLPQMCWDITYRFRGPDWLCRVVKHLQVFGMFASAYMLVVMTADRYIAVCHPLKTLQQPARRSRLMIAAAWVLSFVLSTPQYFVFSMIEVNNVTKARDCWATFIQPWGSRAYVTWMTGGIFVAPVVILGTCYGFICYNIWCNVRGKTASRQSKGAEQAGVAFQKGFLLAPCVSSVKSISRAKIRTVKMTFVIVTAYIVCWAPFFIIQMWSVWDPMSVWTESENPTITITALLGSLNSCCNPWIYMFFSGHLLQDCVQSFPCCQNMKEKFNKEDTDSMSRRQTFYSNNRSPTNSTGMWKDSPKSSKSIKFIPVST
Procedure: The test substances were dissolved in a concentration of 5 mM M in DMSO. Further dilution of these DMSO solutions took place as described for V1b.
The membrane pellet was again homogenized in a High-Pressure-Homogenizer, Polytec 50K at 1500 PSI (Heinemann, Germany) and subsequently taken up in 50 mM Tris-HCl, pH 7.4, homogenized and stored in aliquots frozen in liquid nitrogen at −190° C.
as §1
Duplicate determinations were carried out.
After incubation (60 minutes at room temperature), the samples were processed as described for V1b.
as §2

Sequence of human vasopressin V1b receptor (P47901 whole entry): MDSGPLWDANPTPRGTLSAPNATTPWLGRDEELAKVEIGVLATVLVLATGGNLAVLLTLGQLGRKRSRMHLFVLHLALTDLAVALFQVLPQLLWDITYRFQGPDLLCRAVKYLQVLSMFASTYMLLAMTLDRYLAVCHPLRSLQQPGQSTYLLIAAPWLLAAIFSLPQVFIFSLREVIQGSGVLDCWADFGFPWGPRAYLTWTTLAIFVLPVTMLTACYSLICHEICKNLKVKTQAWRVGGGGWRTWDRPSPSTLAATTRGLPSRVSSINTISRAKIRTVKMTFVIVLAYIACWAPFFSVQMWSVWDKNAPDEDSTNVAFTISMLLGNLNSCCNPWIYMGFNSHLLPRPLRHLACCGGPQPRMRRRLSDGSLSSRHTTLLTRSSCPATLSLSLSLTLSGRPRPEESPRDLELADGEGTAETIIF

CCOc1ccc(OC)cc1C1(N2CC3(CC(N4CCN(C)CC4)C3)C2)C(=O)N(S(=O)(=O)c2ccc(OC)cn2)c2ccc(C#N)cc21 (single isomer, unassigned; (+)) [Example 17B, (+)-3-(2-ethoxy-5-methoxy-phenyl)-1-[(5-methoxy-2-pyridyl)sulfonyl]-3-[2-(4-methylpiperazin-1-yl)-6-azaspiro[3.3]heptan-6-yl]-2-oxo-indoline-5-carbonitrile]
Ki [1]: < 1 nM | Ki(h-V1a)/ Ki(h-V1b) [2]: +++ (>75)

COc1ccc(S(=O)(=O)N2C(=O)C(c3ccccc3OC)(N3CC4(CN(C5CCN(C)CC5)C4)C3)c3cc(C#N)ccc32)nc1 (single isomer, unassigned; (+)) [Example 18A, (+)-3-(2-methoxyphenyl)-1-[(5-methoxy-2-pyridyl)sulfonyl]-3-[2-(1-methyl-4-piperidyl)-2,6-diazaspiro[3.3]heptan-6-yl]-2-oxo-indoline-5-carbonitrile]
Ki [1]: < 1 nM | Ki(h-V1a)/ Ki(h-V1b) [2]: + (10-<25)

COc1ccc(S(=O)(=O)N2C(=O)C(c3ccccc3OC)(N3CC4(CN(C5CCN(C6COC6)CC5)C4)C3)c3cc(C#N)ccc32)nc1 (single isomer, unassigned; (+)) [Example 23, (+)-3-(2-methoxyphenyl)-1-[(5-methoxy-2-pyridyl)sulfonyl]-3-[2-[1-(oxetan-3-yl)-4-piperidyl]-2,6-diazaspiro[3.3]heptan-6-yl]-2-oxo-indoline-5-carbonitrile]
Ki [1]: 1 to 10 nM | Ki(h-V1a)/ Ki(h-V1b) [2]: + (10-<25)

CCOc1ccc(OC)cc1C1(N2CC3(CN(c4ccnc(C)c4)C3)C2)C(=O)N(S(=O)(=O)c2ccc(OC)cc2OC)c2ccc(C#N)cc21 (single isomer, unassigned; (+)) [Example 24, (+)-1-(2,4-dimethoxyphenyl)sulfonyl-3-(2-ethoxy-5-methoxy-phenyl)-3-[2-(2-methyl-4-pyridyl)-2,6-diazaspiro[3.3]heptan-6-yl]-2-oxo-indoline-5-carbonitrile]
Ki [1]: 10 to 100 nM | Ki(h-V1a)/ Ki(h-V1b) [2]: +++ (>75)

CCOc1ccc(OC)cc1C1(N2CC3(CN(c4ccnc(C)c4)C3)C2)C(=O)N(S(=O)(=O)c2ccc(OC)cn2)c2ccc(C#N)cc21 (single isomer, unassigned; (+)) [Example 25, (+)-3-(2-ethoxy-5-methoxy-phenyl)-1-[(5-methoxy-2-pyridyl)sulfonyl]-3-[2-(2-methyl-4-pyridyl)-2,6-diazaspiro[3.3]heptan-6-yl]-2-oxo-indoline-5-carbonitrile]
Ki [1]: < 1 nM | Ki(h-V1a)/ Ki(h-V1b) [2]: +++ (>75)

CCOc1ccc(OC)cc1C1(N2CC3(CN(C4CCN(C)CC4)C3)C2)C(=O)N(S(=O)(=O)c2ccc(OC)cn2)c2ccc(C#N)cc21 (single isomer, unassigned; (-)) [Example 1B, (−)-3-(2-ethoxy-5-methoxy-phenyl)-1-[(5-methoxy-2-pyridyl)sulfonyl]-3-[2-(1-methyl-4-piperidyl)-2,6-diazaspiro[3.3]heptan-6-yl]-2-oxo-indoline-5-carbonitrile]
Ki [1]: 10 to 100 nM | Ki(h-V1a)/ Ki(h-V1b) [2]: +++ (>75)

CCOc1ccc(OC)cc1[C@]1(N2CC3(CN(C4CCN(C)CC4)C3)C2)C(=O)N(S(=O)(=O)c2ccc(OC)nc2)c2ccc(C#N)cc21 [Example 31, (3S)-3-(2-ethoxy-5-methoxy-phenyl)-1-[(6-methoxy-3-pyridyl)sulfonyl]-3-[2-(1-methyl-4-piperidyl)-2,6-diazaspiro[3.3]heptan-6-yl]-2-oxo-indoline-5-carbonitrile]
Ki [1]: 1 to 10 nM | Ki(h-V1a)/ Ki(h-V1b) [2]: + (10-<25)

CCOc1ccc(OC)cc1[C@]1(N2CC3(CN(C4CCN(C)CC4)C3)C2)C(=O)N(S(=O)(=O)c2ccccn2)c2ccc(C#N)cc21 [Example 33, (3S)-3-(2-ethoxy-5-methoxy-phenyl)-3-[2-(1-methyl-4-piperidyl)-2,6-diazaspiro[3.3]heptan-6-yl]-2-oxo-1-(2-pyridylsulfonyl)indoline-5-carbonitrile]
Ki [1]: 1 to 10 nM | Ki(h-V1a)/ Ki(h-V1b) [2]: +++ (>75)

CCOc1ccc(OC)cc1[C@]1(N2CC3(CN(C4CCN(C)CC4)C3)C2)C(=O)N(S(=O)(=O)c2ccc(Cl)cn2)c2ccc(C#N)cc21 [Example 34, (3S)-1-[(5-chloro-2-pyridyl)sulfonyl]-3-(2-ethoxy-5-methoxy-phenyl)-3-[2-(1-methyl-4-piperidyl)-2,6-diazaspiro[3.3]heptan-6-yl]-2-oxo-indoline-5-carbonitrile]
Ki [1]: < 1 nM | Ki(h-V1a)/ Ki(h-V1b) [2]: +++ (>75)

Reference: US9688678B2, “Oxindole compounds carrying a nitrogen-bound spiro substituent and use thereof for treating vasopressin-related diseases” (AbbVie Deutschland GmbH & Co. KG, priority 2014, dated 2017)
